This note sets out measurements from ChEMBL document CHEMBL4334425, “Eradicating uropathogenic Escherichia coli biofilms with a ciprofloxacin-dinitroxide conjugate” (Medchemcomm, 2019).

The source made the active and inactive calls. No cut-off for these calls is given here.

In test [1] the test system is Escherichia coli. Briefly: Antibiofilm activity against Escherichia coli UTI89 incubated for 24 hrs. The format is functional.
The test system of test [2] is Escherichia coli. The experiment in a line: Antibacterial activity against Escherichia coli UTI89 incubated for 18 hrs in presence of 1:2 ratio of ciprofloxacin to compound by broth microdilution method. In kind it is functional.
The subject of test [3] is Escherichia coli. Briefly: Antibacterial activity against Escherichia coli UTI89 incubated for 18 hrs by broth microdilution method. In kind it is functional.
Test [4] deals with Escherichia coli. Briefly: Antibiofilm activity against Escherichia coli UTI89 incubated for 24 hrs in presence of 1:2 ratio of ciprofloxacin to compound. The format is functional.
The test system of test [5] is Escherichia coli. The experiment in a line: Potentiation of ciprofloxacin-induced antibiofilm activity against Escherichia coli UTI89 assessed as increase in ciprofloxacin-induced log reduction in CFU at 40 uM incubated for 24 hrs. In kind it is functional.
In test [6] the test system is Escherichia coli. Briefly: Potentiation of ciprofloxacin-induced antibiofilm activity against Escherichia coli UTI89 assessed as increase in ciprofloxacin-induced reduction in CFU at 20 uM incubated for 24 hrs relative to control. The format is functional. The arrangement: scale not given: the % may be the effect or the level left.
Test [7] relates to Escherichia coli. The experiment in a line: Ratio of MBEC for ciprofloxacin to compound for antibiofilm activity against Escherichia coli UTI89. In kind it is functional.
The test system of test [8] is Escherichia coli. The experiment in a line: Antibiofilm activity against Escherichia coli UTI89 at 12.5 uM incubated for 24 hrs by SYTO9 and PI staining based fluorescence microscopic method. The format is functional.
For test [9], the system named is Escherichia coli. The experiment in a line: Antibiofilm activity against Escherichia coli UTI89 assessed as reduction in viable bioflim associated cells at 12.5 uM incubated for 24 hrs relative to control. In kind it is functional.
A further test relates to T-24. Briefly: Cytotoxicity against human T24 cells assessed as reduction in cell viability incubated for 24 hrs by LDH assay. In kind it is cell-based.
Test [10] relates to Escherichia coli. Briefly: Antibiofilm activity against Escherichia coli UTI89 assessed as dead cells at 400 uM incubated for 24 hrs by SYTO9 and PI staining based fluorescence microscopic method. The format is functional, organism-based.
The test system of test [11] is Escherichia coli. Briefly: Antibiofilm activity against Escherichia coli UTI89 at 400 uM incubated for 24 hrs by SYTO9 and PI staining based fluorescence microscopic method. The format is functional.
In test [12] the test system is Escherichia coli. The experiment in a line: Potentiation of ciprofloxacin-induced antibiofilm activity against Escherichia coli UTI89 assessed as increase in ciprofloxacin-induced reduction in CFU at 80 uM incubated for 24 hrs relative to control. In kind it is functional. The arrangement: scale not given: the % may be the effect or the level left.
For test [13], the system named is Escherichia coli. The experiment in a line: Potentiation of ciprofloxacin-induced antibiofilm activity against Escherichia coli UTI89 assessed as increase in ciprofloxacin-induced log reduction in CFU at 80 uM incubated for 24 hrs. In kind it is functional.
Test [14] concerns Escherichia coli. The experiment in a line: Potentiation of ciprofloxacin-induced antibiofilm activity against Escherichia coli UTI89 assessed as increase in ciprofloxacin-induced reduction in CFU at 40 uM incubated for 24 hrs relative to control. The format is functional. The arrangement: scale not given: the % may be the effect or the level left.
Test [15] has as its system Escherichia coli. Briefly: Potentiation of ciprofloxacin-induced antibiofilm activity against Escherichia coli UTI89 assessed as increase in ciprofloxacin-induced log reduction in CFU at 20 uM incubated for 24 hrs. The format is functional.
In test [16] the test system is Escherichia coli. The experiment in a line: Antibiofilm activity against Escherichia coli UTI89 assessed as cell filamentation at 12.5 to 25 uM incubated for 24 hrs by SYTO9 and PI staining based fluorescence microscopic method. The format is functional, organism-based.
Test [17] deals with Escherichia coli. Briefly: Antibiofilm activity against Escherichia coli UTI89 assessed as small bacterial cells at 400 uM incubated for 24 hrs by SYTO9 and PI staining based fluorescence microscopic method. The format is functional, organism-based.
Test [18] concerns Escherichia coli. Briefly: Antibiofilm activity against Escherichia coli UTI89 assessed as reduction in biofilm residing cells at 12.5 uM incubated for 24 hrs relative to control. In kind it is functional. The arrangement: scale not given: the % may be the effect or the level left.
Where [19] appears, read: Escherichia coli, UTI89, 18 h, read-out: MIC.

Consider `CC1(C)CC(C(=O)O)CC(C)(C)N1[O]`, for which the MBEC in the test on Escherichia coli [1] was greater than 1000 µM; in the test with Escherichia coli [4], “<=800 uM”. For the same molecule, the MIC result in the test on Escherichia coli [2] is “<=0.045 uM”; against Escherichia coli [3], greater than 1000 µM.
For the molecule `CON1C(C)(C)CC(C(=O)NCCCC[C@H](N)C(=O)N2CCN(c3cc4c(cc3F)c(=O)c(C(=O)O)cn4C3CC3)CC2)CC1(C)C`, in the test on Escherichia coli [1], the MBEC was greater than 1000 µM. The minimal inhibitory concentration (MIC) in the test with Escherichia coli [3] (setting [19]) was no more than 30.6 µM.
For `O=C(O)c1cn(C2CC2)c2cc(N3CCNCC3)c(F)cc2c1=O` [CIPROFLOXACIN] the same measures were “<=800 uM” and no more than 0.045 µM.
For `CON1C(C)(C)CC(C(=O)NCCCC[C@H](NC(=O)[C@@H](N)CCCCNC(=O)C2CC(C)(C)N(OC)C(C)(C)C2)C(=O)N2CCN(c3cc4c(cc3F)c(=O)c(C(=O)O)cn4C3CC3)CC2)CC1(C)C` the same measures were greater than 650 µM and no more than 81.6 µM.
In turn, `CC1(C)CC(C(=O)NCCCC[C@H](N)C(=O)N2CCN(c3cc4c(cc3F)c(=O)c(C(=O)O)cn4C3CC3)CC2)CC(C)(C)N1[O]` had an MBEC with Escherichia coli [1] greater than 1000 µM. The molecule also registered an MIC with Escherichia coli [3] of less than 1.95 µM.
With `CC1(C)CC(C(=O)NCCCC[C@H](NC(=O)[C@@H](N)CCCCNC(=O)C2CC(C)(C)N([O])C(C)(C)C2)C(=O)N2CCN(c3cc4c(cc3F)c(=O)c(C(=O)O)cn4C3CC3)CC2)CC(C)(C)N1[O]`, the Activity with Escherichia coli [5] is reported as 1.82 log10CFU; with Escherichia coli [6], 98%; in the test with Escherichia coli [8], greater than 99%; with Escherichia coli [11], 99.9%; in the test with Escherichia coli [12], 50%; in the test with Escherichia coli [13], 2.69 log10CFU. The Activity came out at 93% in the test with Escherichia coli [14], 1.35 log10CFU with Escherichia coli [15] and 99.7% in the test with Escherichia coli [18]. Also, the MBEC result in the test with Escherichia coli [1] was “<=400 uM”. The Ratio in the test on Escherichia coli [7] stood at 2. Further, in the test with Escherichia coli [9], the “fold change (FC)” value is 3. Further, in the test with T-24, the IC50 was greater than 500 µM. Also, the result in the test with Escherichia coli [10], with Escherichia coli [16] and in the test on Escherichia coli [17] was Active. Further, in the test with Escherichia coli [3], the MIC result was “<=10.5 uM”.
